Results: patent US6555518B1, “Gemcitabine as an immunosuppressive pharmaceutical agent” (Eli Lilly and Company, priority 1998, dated 2003)

Legend:
CD4+ lymphocytes = conditions: daily x5 schedule, low malignant lymphomas; cited from earlier work
[1] = tested on: PHA-activated T-lymphocytes (peripheral blood mononuclear cells); test: T-lymphocyte colony formation (lymphocyte colony-growth assay, microagar culture); assay type: cell-based; conditions: 168 h, PBMC, colonies scored after 7 days, read-out: 50% inhibition of PHA-induced lymphocyte proliferation (colony formation)
Procedure: dFdC is commercially available. […] Aye, Blood 58, 1043 (1981). Therefore, peripheral blood mononuclear cells (PBMC) were cultured with phytohemagglutinin (PHA) and varying concentrations of dFdC in the microagar culture system described by Petzer et al., Blood 78, 2583 (1991). PBMCs were suspended in Iscove s medium containing 20% fetal calf serum and 0.3% agar. Subsequently 250 μl aliquots of this suspension containing 2×10^5 PBMCs were plated in multiwell tissue culture plates. The agar was allowed to solidify at room temperature and then was overlayered with 250 μl medium containing 0.5% PHA and 0.5% 2-mercaptoethanol (1×10^−4 mol/l final concentrations). The cultures were incubated at 37° C. in a fully humidified atmosphere containing 5% CO2 and colonies were scored using an inverted microscope after 7 days of incubation.

heart allografts = test: Rat heart-transplantation model (heterotopic heart allograft); assay type: in vivo; set-up: Leucopenia: dose or concentration left out as unconfirmed; conditions: for Graft rejection: histology graded by ISHT criteria
Procedure: Inbred male LEWIS (LEW) rats and Brown Norway (BN) rats weighing 200-270 g were obtained from “Zentralinstitut fur Versuchstierzucht”, Hannover, Germany. Heterotopic heart transplants were performed using microsurgical techniques as described by Schmid et al., Eur. Surg. […] Postoperatively, all animals were given water and standard rat diet ad libitum.
dFdC was administered subcutaneously once daily for 50 consecutive days beginning immediately after surgery. […] The control group (n=8) received no treatment.
The beating activity of heart allografts was determined by daily palpation. Animals were sacrificed by an overdose of ether whenever cardiac allografts stopped beating and hearts and all vital organs were excised for histology. Multiple sections of the left ventricle of the transplant and of every native organ were fixed in 4% buffered formalin. Paraffin-embedded probes were cut into 5-jim-thick sections and stained with hematoxylin and eosin. Slides were assessed by a pathologist blinded to the study and rejection was graded according to the ISHT criteria.

[2] = i.v. over 30 minutes once per week for 3 weeks followed by a week's rest; cited from earlier work
[3] = tested on: CD4+ and CD8+ lymphocyte subsets; conditions: after repeated applications; cited from earlier work
[4] = daily x5 schedule, 9 mg/m^2 dose level; cited from earlier work

In the case of `Nc1nc(Cl)nc2c1ncn2[C@H]1C[C@H](O)[C@@H](CO)O1` [2-chlorodeoxyadenosine], the “Duration of severe suppression of CD4+ lymphocytes” value (CD4+ lymphocytes) is given as “more than 12 months”.

For `Nc1ccn([C@@H]2O[C@H](CO)[C@@H](O)C2(F)F)c(=O)n1` [dFdC, 2′-deoxy-2′,2′-difluorocytidine], the IC50 [1] was 3.25 ± 0.9 nM, the Allograft survival (heart allografts; 25 μg/kg/day s.c. once daily for 50 days) was 7.3 days and the Graft rejection (heart allografts; 25 μg/kg/day) was “Grade IV”. For the same compound, the Allograft survival (heart allografts; 50 μg/kg/day s.c. once daily for 50 days) was 9.2 days, the Graft rejection (heart allografts; 50 μg/kg/day) was “Grade IV” and the Allograft survival (heart allografts; 75 μg/kg/day s.c. once daily for 50 days) was 15.7 days. The Graft rejection (heart allografts; 75 μg/kg/day) was “Grade IV”, the Allograft survival (heart allografts; 100 μg/kg/day s.c. once daily for 50 days) was 152.8 days and the Graft rejection (heart allografts; 100 μg/kg/day) was “Grade IV”. The Allograft survival (heart allografts; 125 μg/kg/day s.c. once daily for 50 days) was 144.2 days, the Graft rejection (heart allografts; 125 μg/kg/day) was “Grade IV” and the Allograft survival (heart allografts; 150 μg/kg/day s.c. once daily for 50 days) was 41.5 days. For the same compound, the Graft rejection (heart allografts; 150 μg/kg/day) was “None”, the Allograft survival (heart allografts; 300 μg/kg/day s.c. once daily for 50 days) was 16.0 days and the Graft rejection (heart allografts; 300 μg/kg/day) was “None”. For the same compound, the Allograft survival (heart allografts; 600 μg/kg/day s.c. once daily for 50 days) was 10.5 days, the Graft rejection (heart allografts; 600 μg/kg/day) was “None” and the Allograft survival (heart allografts; 6000 μg/kg/day s.c. once daily for 50 days) was 4.0 days. For the same compound, the Graft rejection (heart allografts; 6000 μg/kg/day) was “None”, the “Graft survival compared to untreated controls” value (heart allografts; all animals given between 75 and 600 μg/kg BW) was “prolonged” and the Leucopenia (heart allografts; all animals of all dose groups) was “Dose-dependent leucopenia occurred in all animals of all groups”. For the same compound, the Reversibility of leucopenia (heart allografts; animals given less than 150 μg/kg) was “reversible”, the “Toxicity at high dose” value (heart allografts; more than 125 μg/kg BW) was “overimmunosuppression and irreversible myelotoxicity” and the “Myelosuppression with severe infections (WHO grade III/IV), share of patients” value [2] was “less than 1%”. For the same compound, the “Reduction of CD4+ and CD8+ lymphocyte subsets” value [3] was “no significant reduction” and the Nonhaematologic toxicity [4] was “significant amount of nonhaematologic toxicity including sporadic fever and severe hypertension”.
